This passage reports hemolysis and MIC results from ChEMBL document CHEMBL4196049, “β,γ-diamino acids as building blocks for new analogues of Gramicidin S: Synthesis and biological activity” (Eur J Med Chem, 2018).

Values after ≈ are worked out from the molar mass of the structure shown. Non-standard residues stand in square brackets, D forms with d. Residues, ends and D or L forms follow the SMILES beside them. Orn = NCCC[C@H](N)C(=O)O

The nature of data set [1]: Hemolytic activity in human erythrocytes at 50 ug/ml after 30 mins relative to control. Type of data set: ADME, cell-based, Erythrocyte. The conditions noted are these: read-out: Activity.
A short description of data set [2]: Hemolytic activity in human erythrocytes at 100 ug/ml after 30 mins relative to control. Type of data set: ADME, cell-based, Erythrocyte. To be noted: read-out: Activity.
The next data set concerns Escherichia coli. Description: Antibacterial activity against Escherichia coli CIP 53.126 ATCC 8739 after 48 hrs by two-fold serial dilution method. To be noted: ATCC 8739 = CIP 53.126, 48 h. Format: functional.
A further data set relates to Pseudomonas aeruginosa. Description: Antibacterial activity against Pseudomonas aeruginosa CIP 82.118 ATCC 9027 after 48 hrs by two-fold serial dilution method. To be noted: CIP 82.118 ATCC 9027, 48 h. Type of data set: functional.
The test system of another data set is Staphylococcus aureus. The experiment in a line: Antibacterial activity against Staphylococcus aureus subsp. aureus CIP 4.83 ATCC 6538 after 48 hrs by two-fold serial dilution method. Format: functional. To be noted: CIP 4.83 ATCC 6538, 48 h.
The subject of a further data set is Bacillus subtilis. Description: Antibacterial activity against Bacillus subtilis subsp. subtilis CIP 52.65 after 48 hrs by two-fold serial dilution method. The conditions noted are these: CIP 52.65, 48 h. Format: functional.
The test system of data set [3] is Enterococcus faecalis. Description: Antibacterial activity against Enterococcus faecalis CIP 103015 after 48 hrs by two-fold serial dilution method. To be noted: CIP 103015, 48 h. Type of data set: functional.
Data set [4] deals with Enterococcus faecalis. The experiment in a line: Antibacterial activity against Enterococcus faecalis CIP 103214 after 48 hrs by two-fold serial dilution method. Format: functional. To be noted: CIP 103214, 48 h.
The test system of the next data set is Bacillus cereus. The experiment in a line: Antibacterial activity against Bacillus cereus CIP 66.24 after 48 hrs by two-fold serial dilution method. To be noted: CIP 66.24, 48 h. Type of data set: functional.
The test system of a further data set is Streptococcus salivarius. The experiment in a line: Antibacterial activity against Streptococcus salivarius CIP 102503 after 48 hrs by two-fold serial dilution method. Type of data set: functional. To be noted: CIP 102503, 48 h.
In the next data set the test system is Enterococcus faecium. Description: Antibacterial activity against Enterococcus faecium CIP 103014 after 48 hrs by two-fold serial dilution method. Format: functional. The conditions noted are these: CIP 103014, 48 h.

For `CC(C)C[C@@H]1NC(=O)[C@H](CCCN)NC(=O)[C@H](C(C)C)NC(=O)[C@@H]2CCCN2C(=O)[C@@H](Cc2ccccc2)NC(=O)[C@H](CC(C)C)NC(=O)[C@H](CCCN)NC(=O)[C@H](C(C)C)NC(=O)[C@@H]2CCCN2C(=O)[C@@H](Cc2ccccc2)NC1=O` (cyclo(L[dF]PV[Orn]L[dF]PV[Orn])), the hemolysis at 0.5 h, 50 ug/ml in [1] came out at 74%. Further, in data set [2], the hemolysis at 0.5 h, 100 ug/ml is 83%.
In general, MIC refers to the lowest concentration found to suppress growth. Read a high MIC as a need for much substance. For `CC(C)C[C@@H]1NC(=O)[C@H](CCCN)NC(=O)[C@H](C(C)C)NC(=O)[C@@H]2CCCN2C(=O)[C@@H](Cc2ccccc2)NC(=O)[C@H](CC(C)C)NC(=O)[C@H](CCCN)NC(=O)[C@H](C(C)C)NC(=O)[C@@H]2CCCN2C(=O)[C@@H](Cc2ccccc2)NC1=O` (cyclo(V[Orn]L[dF]PV[Orn]L[dF]P)), the MIC against Escherichia coli was 12.5 mg/L (≈ 11 µM); in the data set on Pseudomonas aeruginosa, at least 100 mg/L; against Staphylococcus aureus it was 3.12 mg/L (≈ 2.74 µM); with Bacillus subtilis it was 3.12 mg/L (≈ 2.74 µM); in the data set on Enterococcus faecalis [3], 3.12 mg/L (≈ 2.74 µM); against Enterococcus faecalis [4], 3.12 mg/L (≈ 2.74 µM). Moreover, the MIC in the data set with Bacillus cereus was 6.25 mg/L (≈ 5.48 µM); with Streptococcus salivarius, 3.12 mg/L (≈ 2.74 µM); against Enterococcus faecium it was 3.12 mg/L (≈ 2.74 µM).
